This is an account of results in ChEMBL document CHEMBL1201862, “PubChem BioAssay data set” (2004).

Test systems include OVCAR-5; SF-268; OVCAR-4; EKVX; SK-MEL-5; A498; Hs-578T; BT-549; HT-29; A549; RPMI-8226; OVCAR-3; SR; SF-295; M14; HCT-15; HCT-116; LOX IMVI; MCF7; CCRF-CEM.
Test in all cases: NCI tumour cell line growth inhibition, 48 h

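Following 48 hours of exposure in 96-well plates, responses at five concentrations were used to interpolate endpoints linearly. GI50 = concentration required for 50% inhibition of growth.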 The source made the active and inactive calls. No stated cut-off is given here; in the data, active = GI50 up to about 1.1 µM and inactive = higher.

`COC(=O)[C@@H](NC(=O)N(Cc1ccccc1)C[C@H](CC(C)C)NC(=O)[C@@H](NC(=O)OC(C)(C)C)C(C)C)C(C)C`: the GI50 with OVCAR-5, with SF-268, with OVCAR-4, in the experiment on EKVX, in the experiment on SK-MEL-5 and in the experiment on A498 was > 100 µM (inactive) in each case. In addition, the GI50 in the experiment on Hs-578T was 88.1 µM (inactive); in the experiment on BT-549 it was > 100 µM (inactive); in the experiment on HT-29, > 100 µM (inactive); in the experiment with A549, > 100 µM (inactive); with RPMI-8226 it was > 100 µM (inactive); in the experiment on OVCAR-3 it was > 100 µM (inactive). Further, the GI50 is > 100 µM (inactive) with SR; > 100 µM (inactive) in the experiment on SF-295; > 100 µM (inactive) with M14; more than 100 µM with HCT-15; > 100 µM (inactive) with HCT-116; > 100 µM (inactive) with LOX IMVI.
With `Cc1cc(=O)oc2c(CNC(CC(C)C)C(=O)O)c(O)ccc12` (stereo not drawn), the GI50 in the experiment with OVCAR-5, in the experiment with SF-268, with OVCAR-4, in the experiment with EKVX, in the experiment on SK-MEL-5 and in the experiment on Hs-578T was > 100 µM (inactive) throughout. The GI50 in the experiment on HT-29, in the experiment with A549, with RPMI-8226, in the experiment with OVCAR-3, in the experiment on MCF7 and in the experiment with SR was > 100 µM (inactive) throughout. Moreover, the GI50 is > 100 µM (inactive) in the experiment with SF-295; > 100 µM (inactive) in the experiment with M14; more than 100 µM in the experiment with HCT-15; > 100 µM (inactive) with HCT-116; > 100 µM (inactive) in the experiment with LOX IMVI.
On to `OCC1NC(COC2OC(CO)C(O)C(O)C2O)C(O)C(O)C1O` (stereo not drawn), for which the GI50 in the experiment with OVCAR-5, with SF-268, with OVCAR-4, with SK-MEL-5, with A498 and with CCRF-CEM was > 100 µM (inactive) each time. The GI50 with BT-549, with HT-29, with A549, in the experiment on RPMI-8226, with OVCAR-3 and in the experiment on MCF7 was > 100 µM (inactive) each time. In addition, the GI50 in the experiment on SR was > 100 µM (inactive); with SF-295, > 100 µM (inactive); in the experiment with M14, > 100 µM (inactive); in the experiment on HCT-15 it was more than 100 µM; in the experiment on HCT-116 it was > 100 µM (inactive).
With `O=C(CC(C(=O)c1cccs1)c1cccs1)c1ccsc1` (stereo not drawn), the GI50 with OVCAR-5 was > 100 µM (inactive); in the experiment with SF-268 it was 56.4 µM (inactive); with OVCAR-4, 67.1 µM (inactive); in the experiment on EKVX, 66.1 µM (inactive); in the experiment with SK-MEL-5, 39.6 µM (inactive); with A498, 49.7 µM (inactive). The GI50 is 37.9 µM (inactive) in the experiment on CCRF-CEM; > 100 µM (inactive) in the experiment with Hs-578T; 57.9 µM (inactive) in the experiment with HT-29; 43.3 µM (inactive) with A549; 36.1 µM (inactive) in the experiment on RPMI-8226; 32.8 µM (inactive) in the experiment with MCF7. For the same compound, the GI50 with SR was 37.2 µM (inactive); in the experiment on M14, 38.2 µM (inactive); in the experiment on HCT-15, 38.3 µM; in the experiment with HCT-116 it was 36.6 µM (inactive); in the experiment with LOX IMVI it was 10.2 µM (inactive).
As for `CO/C(N)=C(C#N)/N=C/c1cccnc1`, the GI50 in the experiment with OVCAR-5, with SF-268, with OVCAR-4, in the experiment with EKVX, with SK-MEL-5 and in the experiment with A498 was > 100 µM (inactive) each time. Further, the GI50 in the experiment on CCRF-CEM was 35.8 µM (inactive); in the experiment on BT-549 it was > 100 µM (inactive); in the experiment on HT-29, > 100 µM (inactive); in the experiment with A549, > 100 µM (inactive); in the experiment on RPMI-8226 it was > 100 µM (inactive); in the experiment on OVCAR-3 it was > 100 µM (inactive). Moreover, the GI50 was > 100 µM (inactive) with MCF7; > 100 µM (inactive) in the experiment on SF-295; > 100 µM (inactive) in the experiment with M14; more than 100 µM in the experiment with HCT-15; > 100 µM (inactive) in the experiment with HCT-116; > 100 µM (inactive) in the experiment on LOX IMVI.
With `O=C(CCl)N1CCN(c2ccccc2)CC1`, the GI50 in the experiment on OVCAR-5 was 20.6 µM (inactive); in the experiment with SF-268 it was 14.5 µM (inactive); in the experiment on OVCAR-4, 17.2 µM (inactive); with EKVX, 24.5 µM (inactive); with SK-MEL-5, 16.3 µM (inactive); with A498, 25.9 µM (inactive). Further, the GI50 is 26.7 µM (inactive) in the experiment with CCRF-CEM; 32.8 µM (inactive) in the experiment on Hs-578T; 23.6 µM (inactive) in the experiment on HT-29; 22.6 µM (inactive) in the experiment on A549; 24.9 µM (inactive) in the experiment on RPMI-8226; 19.5 µM (inactive) in the experiment on MCF7. Also, the GI50 in the experiment on SR is 26.7 µM (inactive); with SF-295 it was 19.1 µM (inactive); in the experiment with M14, 17.7 µM (inactive); with HCT-15, 20.1 µM; in the experiment with HCT-116, 18.3 µM (inactive).
For the compound `CN(C)CCCNC(=O)CCNC(=O)c1cc(NC(=O)c2cc(NC(=O)c3cc(NC(=O)c4nc(NC(=O)CCCNC(=O)c5cc(NC(=O)c6cc(NC(=O)c7cc(NC(=O)c8nccn8C)cn7C)cn6C)cn5C)cn4C)cn3C)cn2C)cn1C`, the GI50 in the experiment with OVCAR-5, with SF-268, with OVCAR-4, with EKVX, in the experiment with SK-MEL-5 and in the experiment with A498 was > 100 µM (inactive) in each case. For the same compound, the GI50 with CCRF-CEM, in the experiment on Hs-578T, with HT-29, in the experiment with A549, in the experiment with RPMI-8226 and in the experiment on OVCAR-3 was > 100 µM (inactive) throughout. For the same compound, the GI50 with MCF7 was > 100 µM (inactive); with SR it was > 100 µM (inactive); with SF-295, > 100 µM (inactive); with M14, > 100 µM (inactive); with HCT-15, more than 100 µM; in the experiment on HCT-116 it was > 100 µM (inactive). The GI50 with LOX IMVI is > 100 µM (inactive).
As to `O=C1c2ccccc2CC12Cc1cc3c(cc1C2=O)CCC3` (stereo not drawn), the GI50 with OVCAR-5, in the experiment with SF-268, in the experiment on OVCAR-4, in the experiment on EKVX, in the experiment on SK-MEL-5 and with A498 was > 100 µM (inactive) throughout. Also, the GI50 in the experiment on CCRF-CEM is > 100 µM (inactive); with Hs-578T it was > 100 µM (inactive); in the experiment on HT-29, > 100 µM (inactive); with A549 it was > 100 µM (inactive); in the experiment with RPMI-8226, 43.6 µM (inactive); with OVCAR-3, > 100 µM (inactive). Further, the GI50 with MCF7 was > 100 µM (inactive); in the experiment with SR, > 100 µM (inactive); in the experiment with SF-295 it was > 100 µM (inactive); in the experiment with M14, > 100 µM (inactive); with HCT-15, more than 100 µM; in the experiment on HCT-116 it was > 100 µM (inactive). In the experiment with LOX IMVI, the GI50 was > 100 µM (inactive).
On to `COC(=O)[C@]1(c2cc3ccccc3n2S(=O)(=O)c2ccccc2)CC2CCC1NC2` (stereo partly drawn), for which the GI50 in the experiment on OVCAR-5 was 16.1 µM (inactive); in the experiment with SF-268 it was 16.8 µM (inactive); in the experiment on OVCAR-4, 16.4 µM (inactive); in the experiment with EKVX it was 14.2 µM (inactive); with SK-MEL-5, 13 µM (inactive); in the experiment with CCRF-CEM, 16.1 µM (inactive). Further, the GI50 in the experiment on BT-549 is 14.5 µM (inactive); in the experiment with HT-29, 12.4 µM (inactive); in the experiment with A549 it was 12.6 µM (inactive); in the experiment with RPMI-8226, 6.65 µM (inactive); in the experiment on OVCAR-3, 17 µM (inactive); in the experiment with MCF7, 13.2 µM (inactive). Besides, the GI50 in the experiment with SR was < 0.01 µM (active); with SF-295, 16.9 µM (inactive); with M14, 14.2 µM (inactive); with HCT-15, 15.6 µM; in the experiment with HCT-116, 13.7 µM (inactive); with LOX IMVI it was 15.6 µM (inactive).
With `COc1cccc(C2SCC(=O)N2c2ccc(-n3c(-c4ccccc4)nc4ccccc4c3=O)cc2)c1OC` (stereo not drawn), the GI50 with OVCAR-5, with SF-268, with OVCAR-4, in the experiment with EKVX, in the experiment on SK-MEL-5 and in the experiment on A498 was > 100 µM (inactive) each time. Besides, the GI50 in the experiment on CCRF-CEM, with Hs-578T, in the experiment on BT-549, in the experiment on HT-29, in the experiment on A549 and in the experiment on RPMI-8226 was > 100 µM (inactive) each time. Moreover, the GI50 was > 88.7 µM (inactive) with OVCAR-3; > 100 µM (inactive) with SR; > 100 µM (inactive) in the experiment on SF-295; > 100 µM (inactive) with M14; more than 100 µM with HCT-15; > 100 µM (inactive) in the experiment on HCT-116. Moreover, the GI50 in the experiment with LOX IMVI is > 100 µM (inactive).
`CCN1C(c2ccccc2)=CC(c2ccccc2)(C(Cl)(Cl)Cl)C=C1c1ccccc1`: the GI50 was 15.1 µM (inactive) in the experiment on OVCAR-5; 11.5 µM (inactive) in the experiment with SF-268; 24 µM (inactive) with OVCAR-4; 4.22 µM (inactive) in the experiment with EKVX; 1.7 µM (inactive) in the experiment on SK-MEL-5; 17.3 µM (inactive) in the experiment on A498. Also, the GI50 in the experiment with CCRF-CEM was 5.58 µM (inactive); in the experiment on Hs-578T, 25.7 µM (inactive); with HT-29, 3.48 µM (inactive); in the experiment with A549, 32.4 µM (inactive); with RPMI-8226, 2.22 µM (inactive); with OVCAR-3 it was 7 µM (inactive). The GI50 in the experiment on MCF7 is 5.92 µM (inactive); in the experiment on SR, > 10 µM (inactive); with SF-295, 32.5 µM (inactive); with M14 it was 4.35 µM (inactive); with HCT-15, 42.9 µM; with HCT-116, 4.66 µM (inactive). The GI50 in the experiment with LOX IMVI is 8.45 µM (inactive).
